Values of other authors as cited in patent publication US11013731B2, “Intratumoral administration of sirolimus for treatment of prostate cancer” (SANTEN PHARMACEUTICAL CO., LTD., priority 2017, dated 2021).

Conditions: according to Medscape

- oral bioavailability: 14%
SMILES: CO[C@H]1C[C@@H]2CC[C@@H](C)[C@@](O)(O2)C(=O)C(=O)N2CCCC[C@H]2C(=O)O[C@H]([C@H](C)C[C@@H]2CC[C@@H](O)[C@H](OC)C2)CC(=O)[C@H](C)/C=C(\C)[C@@H](O)[C@@H](OC)C(=O)[C@H](C)C[C@H](C)/C=C/C=C/C=C/1C [sirolimus]
